Target: T1, recombinant IL4I1 (Homo sapiens, UniProt Q96RQ9)
T1 construct: purchased R&D Systems 5684-AO-020
T1 sequence (Q96RQ9 22-567): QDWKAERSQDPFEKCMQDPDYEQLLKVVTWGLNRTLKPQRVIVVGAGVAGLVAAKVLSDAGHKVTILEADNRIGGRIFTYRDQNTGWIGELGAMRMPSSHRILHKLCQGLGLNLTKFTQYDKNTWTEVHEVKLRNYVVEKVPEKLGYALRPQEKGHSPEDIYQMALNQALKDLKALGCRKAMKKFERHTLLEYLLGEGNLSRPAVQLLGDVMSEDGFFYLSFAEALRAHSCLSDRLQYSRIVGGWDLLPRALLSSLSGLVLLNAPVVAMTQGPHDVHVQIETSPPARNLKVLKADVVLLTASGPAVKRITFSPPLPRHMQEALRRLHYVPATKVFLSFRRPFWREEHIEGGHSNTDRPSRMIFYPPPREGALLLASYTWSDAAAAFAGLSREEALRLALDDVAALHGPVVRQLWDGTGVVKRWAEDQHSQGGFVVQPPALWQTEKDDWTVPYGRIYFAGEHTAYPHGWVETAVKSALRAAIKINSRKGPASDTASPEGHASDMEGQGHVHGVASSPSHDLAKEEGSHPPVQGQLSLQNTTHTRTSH
Assay: IL4I1 Enzymatic Assay (Amplex Red/HRP coupled detection of H2O2, fluorescence)
Type: biochemical
Settings: 1 nM recombinant IL4I1; four-hour pre-incubation with compound; 1 mM each Phe, Tyr, Trp; ten-point titration
How it was run: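 Recombinant IL4I1 (1 nM final) pre-incubated 4 h at ambient temperature with compound (0.5% DMSO) in 50 mM Hepes pH 7.0, 0.005% Tween20; reaction started with 1 mM each Phe/Tyr/Trp plus excess Amplex Red/HRP, run 120 min. H2O2 read as resorufin fluorescence; EC50 from 10-point four-parameter fit.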

SMILES	EC50 [nM]
Cc1ccc(-c2cc(C(=O)NCc3nnc(-c4ccccc4)s3)on2)c(C)n1 [Example 283, 3-(2,6-dimethylpyridin-3-yl)-N-((5-phenyl-1,3,4-thiadiazol-2-yl)methyl)isoxazole-5-carboxamide]	165
O=C(NCc1cc(-c2ccncc2)no1)c1cn(C2CC2)nn1 [Example 284, 1-cyclopropyl-N-((3-(pyridin-4-yl)isoxazol-5-yl)methyl)-1H-1,2,3-triazole-4-carboxamide]	74
Cn1nnc(C(=O)NCc2nnc(-c3ccccc3)s2)c1F [Example 289, 5-fluoro-1-methyl-N-((5-phenyl-1,3,4-thiadiazol-2-yl)methyl)-1H-1,2,3-triazole-4-carboxamide]	301
O=C(NCc1ccc(-c2ccccc2)nn1)c1cn(C2COC2)nn1 [Example 290, 1-(oxetan-3-yl)-N-((6-phenylpyridazin-3-yl)methyl)-1H-1,2,3-triazole-4-carboxamide]	209
O=C(NCc1cc(-c2ccccc2)no1)c1cn(CC(F)F)nn1 [Example 291, 1-(2,2-difluoroethyl)-N-((3-phenylisoxazol-5-yl)methyl)-1H-1,2,3-triazole-4-carboxamide]	12
O=C(NCc1cc(-c2ccccc2)on1)c1cn(CC(F)F)nn1 [Example 292, 1-(2,2-difluoroethyl)-N-((5-phenylisoxazol-3-yl)methyl)-1H-1,2,3-triazole-4-carboxamide]	5
O=C(NCc1ccc(-c2ccccc2)nn1)c1cn(CC(F)F)nn1 [Example 293, 1-(2,2-difluoroethyl)-N-((6-phenylpyridazin-3-yl)methyl)-1H-1,2,3-triazole-4-carboxamide]	21
Cn1cc(C(=O)NCc2nnc(N3CCCCC3)s2)nn1 [Example 294, 1-methyl-N-((5-(piperidin-1-yl)-1,3,4-thiadiazol-2-yl)methyl)-1H-1,2,3-triazole-4-carboxamide]	251
Cn1cc(C(=O)NCc2nnc(-c3ccc(O)cc3)s2)nn1 [Example 295, N-[[5-(4-hydroxyphenyl)-1,3,4-thiadiazol-2-yl]methyl]-1-methyl-triazole-4-carboxamide]	81
Cn1cc(C(=O)NCc2nnc(-c3cncs3)s2)nn1 [Example 297, 1-methyl-N-((5-(thiazol-5-yl)-1,3,4-thiadiazol-2-yl)methyl)-1H-1,2,3-triazole-4-carboxamide]	79
O=C(NCc1nnc(-c2ccccc2)s1)c1cn(C[C@H](F)CO)nn1 [Example 302, (S)-1-(2-fluoro-3-hydroxypropyl)-N-((5-phenyl-1,3,4-thiadiazol-2-yl)methyl)-1H-1,2,3-triazole-4-carboxamide]	5
C[C@H](CO)n1cc(C(=O)NCc2nnc(-c3ccccc3)s2)nn1 [Example 303, (R)-1-(1-hydroxypropan-2-yl)-N-((5-phenyl-1,3,4-thiadiazol-2-yl)methyl)-1H-1,2,3-triazole-4-carboxamide]	6
CC(C)n1cc(C(=O)NCc2nnc(-c3ccccc3)s2)nn1 [Example 304, 1-isopropyl-N-((5-phenyl-1,3,4-thiadiazol-2-yl)methyl)-1H-1,2,3-triazole-4-carboxamide]	4
O=C(NCc1nnc(-c2ccccc2)s1)c1cn(C2CCOC2)nn1 (stereo not shown) [Example 305, N-((5-phenyl-1,3,4-thiadiazol-2-yl)methyl)-1-(tetrahydrofuran-3-yl)-1H-1,2,3-triazole-4-carboxamide]	29
O=C(NCc1nnc(-c2ccccc2)s1)c1cnnn1C1CCOC1 (stereo not shown) [Example 306, N-((5-phenyl-1,3,4-thiadiazol-2-yl)methyl)-1-(tetrahydrofuran-3-yl)-1H-1,2,3-triazole-5-carboxamide]	654
O=C(NCc1nnc(-c2ccccc2)s1)c1cn(C2CS(=O)(=O)C2)nn1 [Example 307, 1-(1,1-dioxidothietan-3-yl)-N-((5-phenyl-1,3,4-thiadiazol-2-yl)methyl)-1H-1,2,3-triazole-4-carboxamide]	73
CS(=O)(=O)Cn1cc(C(=O)NCc2nnc(-c3ccccc3)s2)nn1 [Example 308, 1-((methylsulfonyl)methyl)-N-((5-phenyl-1,3,4-thiadiazol-2-yl)methyl)-1H-1,2,3-triazole-4-carboxamide]	75
O=C(NCc1nnc(-c2ccccc2)s1)c1cn(-c2ccncn2)nn1 [Example 309, N-((5-phenyl-1,3,4-thiadiazol-2-yl)methyl)-1-(pyrimidin-4-yl)-1H-1,2,3-triazole-4-carboxamide]	720
O=C(NCc1nnc(-c2ccccc2)s1)c1cn(-c2ccccn2)nn1 [Example 310, N-((5-phenyl-1,3,4-thiadiazol-2-yl)methyl)-1-(pyridin-2-yl)-1H-1,2,3-triazole-4-carboxamide]	182
CC(C)(C(N)=O)n1cc(C(=O)NCc2nnc(-c3ccccc3)s2)nn1 [Example 312, 1-(1-amino-2-methyl-1-oxopropan-2-yl)-N-((5-phenyl-1,3,4-thiadiazol-2-yl)methyl)-1H-1,2,3-triazole-4-carboxamide]	12

Continued, values first:

EC50 [nM]	SMILES
9	O=C(NCc1nnc(-c2ccccc2)s1)c1cn(-c2cn[nH]c2)nn1 [Example 287, N-((5-phenyl-1,3,4-thiadiazol-2-yl)methyl)-1-(1H-pyrazol-4-yl)-1H-1,2,3-triazole-4-carboxamide]
39	Cn1cc(-n2cc(C(=O)NCc3nnc(-c4ccccc4)s3)nn2)cn1 [Example 288, 1-(1-methyl-1H-pyrazol-4-yl)-N-((5-phenyl-1,3,4-thiadiazol-2-yl)methyl)-1H-1,2,3-triazole-4-carboxamide]
418	Cn1cc(C(=O)NCc2nnc(-c3ccc(Cl)cc3)s2)nn1 [Example 296, N-((5-(4-chlorophenyl)-1,3,4-thiadiazol-2-yl)methyl)-1-methyl-1H-1,2,3-triazole-4-carboxamide]
14	Cc1ccc(-n2cc(C(=O)NCc3nnc(-c4cncs4)s3)nn2)c(C)n1 [Example 298, 1-(2,6-dimethylpyridin-3-yl)-N-((5-(thiazol-5-yl)-1,3,4-thiadiazol-2-yl)methyl)-1H-1,2,3-triazole-4-carboxamide]
215	Cn1cc(C(=O)NCc2nnc(-c3cn[nH]c3)s2)nn1 [Example 299, N-((5-(1H-pyrazol-4-yl)-1,3,4-thiadiazol-2-yl)methyl)-1-methyl-1H-1,2,3-triazole-4-carboxamide]
22	Cc1ccc(-n2cc(C(=O)NCc3nnc(-c4cn[nH]c4)s3)nn2)c(C)n1 [Example 300, N-((5-(1H-pyrazol-4-yl)-1,3,4-thiadiazol-2-yl)methyl)-1-(2,6-dimethylpyridin-3-yl)-1H-1,2,3-triazole-4-carboxamide]
8	Cc1nc(OC(F)F)ccc1-n1cc(C(=O)NCc2nnc(-c3ccccc3)s2)nn1 [Example 301, 1-(6-(difluoromethoxy)-2-methylpyridin-3-yl)-N-((5-phenyl-1,3,4-thiadiazol-2-yl)methyl)-1H-1,2,3-triazole-4-carboxamide]
294	O=C(NCc1nnc(-c2ccccc2)s1)c1cn(-c2cnccn2)nn1 [Example 311, N-((5-phenyl-1,3,4-thiadiazol-2-yl)methyl)-1-(pyrazin-2-yl)-1H-1,2,3-triazole-4-carboxamide]

From patent publication US20240336608A1, “IL4I1 INHIBITORS AND METHODS OF USE” (Merck Sharp & Dohme LLC, priority 2023, published 2024)
